Measurements reported in US10221179B2, “Substituted pyrazoloquinazolinones and pyrroloquinazolinones as allosteric modulators of group II metabotropic glutamate receptors” (DOMAIN THERAPEUTICS, priority 2014, dated 2019).
Structures can show the parent of a compound that is named as a salt.

Which melting point does the source give for `Cn1c(=O)c2cc(C(F)(F)F)ccc2n2nc(-c3ccnc(C(F)(F)F)c3)cc12` [Example 37] here?
The melting point was 205 to 210 °C.

For `CC(=O)Nc1ccc2c(c1)c(=O)n(C)c1cc(-c3ccnc(C(F)(F)F)c3)nn21` [Example 42, N-[4-Methyl-5-oxo-2-(2-trifluoromethyl-pyridin-4-yl)-4,5-dihydro-pyrazolo[1,5-a]quinazolin-7-yl]-acetamide], which melting point is on record?
The melting point was > 250 °C.

Which melting point does the source give for `CN1CCN(c2ccc3c(=O)n(C)c4cc(-c5ccnc(C(F)(F)F)c5)nn4c3c2)CC1.Cl` here?
Its melting point is > 250 °C.

With `Cc1cnccc1-c1cc2n(C)c(=O)c3ccccc3n2n1` [Example 109, 4-Methyl-2-(3-methyl-pyridin-4-yl)-4H-pyrazolo[1,5-a]quinazolin-5-one] as the compound, how does the melting point read?
The melting point was 145 to 150 °C.

Which melting point does the source give for `Cn1c(=O)c2ccccc2n2nc(-c3ccncc3F)cc12` [Example 107, 2-(3-Fluoro-pyridin-4-yl)-4-methyl-4H-pyrazolo[1,5-a]quinazolin-5-one] here?
The melting point was 244 to 247 °C.

With `Cn1c(=O)c2cc(S(C)(=O)=O)ccc2n2nc(-c3ccnc(C(F)(F)F)c3)cc12` [Example 53, 7-Methanesulfonyl-4-methyl-2-(2-trifluoromethyl-pyridin-4-yl)-4H-pyrazolo[1,5-a]quinazolin-5-one] as the compound, how does the melting point read?
Its melting point is > 250 °C.

Which melting point does the source give for `Cc1cc(-c2cc3n(C)c(=O)c4ccccc4n3n2)cc(C2CC2)n1` (as salt: HCl) [Example 106, 2-(2-Cyclopropyl-6-methyl-pyridin-4-yl)-4-methyl-4H-pyrazolo[1,5-a]quinazolin-5-one] here?
Its melting point is > 250 °C.

With `Cn1c(=O)c2ccc(N3CC(CO)C3)cc2n2nc(-c3ccnc(C(F)(F)F)c3)cc12` [Example 69, 8-(3-Hydroxymethyl-azetidin-1-yl)-4-methyl-2-(2-trifluoromethyl-pyridin-4-yl)-4H-pyrazolo[1,5-a]quinazolin-5-one] as the compound, how does the melting point read?
Its melting point is > 250 °C.

For `Cn1c(=O)c2ccc(N3CCCC(O)C3)cc2n2nc(-c3ccnc(C(F)(F)F)c3)cc12` (centres unmarked) [Example 124, 8-(3-Hydroxy-piperidin-1-yl)-4-methyl-2-(2-trifluoromethyl-pyridin-4-yl)-4H-pyrazolo[1,5-a]quinazolin-5-one], which melting point is on record?
The melting point was > 250 °C.

With `Cn1c(=O)c2ccc(C3CC3)cc2n2nc(-c3ccnc(C(F)(F)F)c3)cc12` [Example 73, 8-Cyclopropyl-4-methyl-2-(2-trifluoromethyl-pyridin-4-yl)-4H-pyrazolo[1,5-a]quinazolin-5-one] as the compound, how does the melting point read?
The melting point was > 250 °C.

Which melting point does the source give for `Cn1c(=O)c2cc(OC(F)(F)F)ccc2n2nc(-c3ccnc(C(F)(F)F)c3)cc12` [Example 52, 4-Methyl-7-trifluoromethoxy-2-(2-trifluoromethyl-pyridin-4-yl)-4H-pyrazolo[1,5-a]quinazolin-5-one] here?
Its melting point is 240 to 245 °C.

With `Cl.Cn1c(=O)c2ccccc2n2nc(-c3ccnc(C4CCCC4)c3)cc12` as the compound, how does the melting point read?
The melting point was > 250 °C.

Which melting point does the source give for `Cn1c(=O)c2ccc(OCCCO)cc2n2nc(-c3ccnc(C(F)(F)F)c3)cc12` [Example 111, 8-(3-Hydroxy-propoxy)-4-methyl-2-(2-trifluoromethyl-pyridin-4-yl)-4H-pyrazolo[1,5-a]quinazolin-5-one] here?
The melting point was 223 to 226 °C.

For `COCCOc1ccc2c(c1)c(=O)n(C)c1cc(-c3ccnc(C(F)(F)F)c3)nn21` [Example 50, 7-(2-Methoxy-ethoxy)-4-methyl-2-(2-trifluoromethyl-pyridin-4-yl)-4H-pyrazolo[1,5-a]quinazolin-5-one], which melting point is on record?
The melting point was 182 to 189 °C.

Which melting point does the source give for `Cn1c(=O)c2ccccc2n2nc(-c3ccnc(OC4COC4)c3)cc12` [Example 18, 4-Methyl-2-[2-(oxetan-3-yloxy)-pyridin-4-yl]-4H-pyrazolo[1,5-a]quinazolin-5-one] here?
The melting point was 219 to 223 °C.

With `Cn1c(=O)c2cc(N3CCOCC3)ccc2n2nc(-c3ccnc(C(F)(F)F)c3)cc12` [Example 47, 4-Methyl-7-morpholin-4-yl-2-(2-trifluoromethyl-pyridin-4-yl)-4H-pyrazolo[1,5-a]quinazolin-5-one] as the compound, how does the melting point read?
Its melting point is 149 to 163 °C.

With `COCCOc1cc(-c2cc3n(C)c(=O)c4ccccc4n3n2)ccn1` [Example 20, 2-[2-(2-Methoxy-ethoxy)-pyridin-4-yl]-4-methyl-4H-pyrazolo[1,5-a]quinazolin-5-one] as the compound, how does the melting point read?
The melting point was 169 to 173 °C.

For `COC1CCN(c2ccc3c(=O)n(C)c4cc(-c5ccnc(C(F)(F)F)c5)nn4c3c2)CC1` [Example 62, 8-(4-Methoxy-piperidin-1-yl)-4-methyl-2-(2-trifluoromethyl-pyridin-4-yl)-4H-pyrazolo[1,5-a]quinazolin-5-one], which melting point is on record?
The melting point was > 250 °C.

With `Cl.Cn1c(=O)c2cc(OCCN3CCOCC3)ccc2n2nc(-c3ccnc(C(F)(F)F)c3)cc12` as the compound, how does the melting point read?
The melting point was > 250 °C.

Which melting point does the source give for `Cn1c(=O)c2ccc(C3CCCC3)cc2n2nc(-c3ccnc(C(F)(F)F)c3)cc12` [Example 74, 8-Cyclopentyl-4-methyl-2-(2-trifluoromethyl-pyridin-4-yl)-4H-pyrazolo[1,5-a]quinazolin-5-one] here?
Its melting point is 246 to 250 °C.

For `O=c1c2ccccc2n2nc(-c3ccnc(C(F)(F)F)c3)cc2n1CC(F)F` [Example 29, 4-(2,2-Difluoro-ethyl)-2-(2-trifluoromethyl-pyridin-4-yl)-4H-pyrazolo[1,5-a]quinazolin-5-one], which melting point is on record?
The melting point was 223 to 230 °C.

For `COCCn1c(=O)c2ccccc2n2nc(-c3ccnc(C(F)(F)F)c3)cc12` [Example 30, 4-(2-Methoxy-ethyl)-2-(2-trifluoromethyl-pyridin-4-yl)-4H-pyrazolo[1,5-a]quinazolin-5-one], which melting point is on record?
Its melting point is 165 to 174 °C.

Which melting point does the source give for `COc1ccc2c(=O)n(C)c3cc(-c4ccnc(C(F)(F)F)c4)nn3c2c1` [Example 54, 8-Methoxy-4-methyl-2-(2-trifluoromethyl-pyridin-4-yl)-4H-pyrazolo[1,5-a]quinazolin-5-one] here?
Its melting point is > 250 °C.

With `Cn1c(=O)c2ccc(N3CCC(CO)CC3)cc2n2nc(-c3ccnc(C(F)(F)F)c3)cc12` [Example 67, 8-(4-Hydroxymethyl-piperidin-1-yl)-4-methyl-2-(2-trifluoromethyl-pyridin-4-yl)-4H-pyrazolo[1,5-a]quinazoin-5-one] as the compound, how does the melting point read?
Its melting point is 205 to 210 °C.

For `Cn1c(=O)c2ccc(C#N)cc2n2nc(-c3ccnc(C(F)(F)F)c3)cc12` [Example 75, 4-Methyl-5-oxo-2-(2-trifluoromethyl-pyridin-4-yl)-4,5-dihydro-pyrazolo[1,5-a]quinazoline-8-carbonitrile], which melting point is on record?
Its melting point is > 250 °C.

For `Cn1c(=O)c2cc(N)ccc2n2nc(-c3ccnc(C(F)(F)F)c3)cc12` [Example 43, 7-Amino-4-methyl-2-(2-trifluoromethyl-pyridin-4-yl)-4H-pyrazolo[1,5-a]quinazolin-5-one], which melting point is on record?
The melting point was 245 to 250 °C.

With `Cn1c(=O)c2ccc(NCC(C)(C)O)cc2n2nc(-c3ccnc(C(F)(F)F)c3)cc12` [Example 126, 8-(2-Hydroxy-2-methyl-propylamino)-4-methyl-2-(2-trifluoromethyl-pyridin-4-yl)-4H-pyrazolo[1,5-a]quinazolin-5-one] as the compound, how does the melting point read?
The melting point was > 250 °C.

Which melting point does the source give for `COc1ccc2c(c1)c(=O)n(C)c1cc(-c3ccnc(F)c3)nn21` [Example 101, 2-(2-Fluoro-pyridin-4-yl)-7-methoxy-4-methyl-4H-pyrazolo[1,5-a]quinazolin-5-one] here?
The melting point was 235 to 245 °C.

With `Cn1cc(-c2cc3n(C)c(=O)c4ccccc4n3n2)cn1` [Example 103, 4-Methyl-2-(1-methyl-1H-pyrazol-4-yl)-4H-pyrazolo[1,5-a]quinazolin-5-one] as the compound, how does the melting point read?
The melting point was 195 to 199 °C.
